Values belong to the molecule of their own block, whether it stands above or below them. Residues, ends and D or L forms follow the SMILES beside them. *: point of attachment. Cbz = O=C(OCc1ccccc1)*; CH2F = FC*
Legend:
[1] = test system: endogenous human caspase-12; experiment: Induction of endogenous caspase-12 protein by ER stress-inducing agents in SH-EP cells (Western blot); type: cell-based
Protocol: Reports in the literature indicated a strong activation of murine caspase-12 in response to agents which induce an endoplasmic reticulum (ER) stress response, such as tunicamycin or the Ca^2+ ionophore A23187. The activation of endogenous human caspase-12 by these ER stress-inducing agents in SH-EP and HEK293 cells was evaluated by Western blot analysis of cell lysates. SH-EP is a neuroblastoma cell line that endogenously expresses human caspase-12 at detectable levels. HEK293 is a transformed kidney cell line that lacks detectable caspase-12.
Cell cultures were treated with 1 μg/ml tunicamycin or 2 μM A23187 (Calbiochem) and harvested over time. Cells were lysed in detergent buffer, cellular proteins resolved on NuPAGE gels and subjected to Western blot analysis using the same antibody as in Example 8A above. […] (BACHEM) for 40 hours.
(§1) The biological significance of caspase-12 up-regulation by the ER stress-inducing agent A23187 in apoptosis was further investigated. SH-EP cells were treated with 2 μM A23187 for 40 hours to induce expression of endogenous caspase-12. One control culture was left untreated. Of the four cultures treated with A23187, one culture received 10 μg/ml cycloheximide (CHX) to block new protein synthesis and two cultures were subjected to an apoptotic stimulus, either 250 ng/ml α-Fas antibody for 24 hours or 1200 microjoules UV irradiation. The cultures were harvested after 6.5 hours. Western blot analysis of caspase-12 expression and activation was done as described above in Example 8A, using similar protein loads for each condition tested.

endogenous caspase-12 = experiment: Caspase-12 cleavage/activation in SH-EP cells subjected to ER stress (Western blot); type: cell-based, human; details: 2 μM A23187 40 hours, harvested 6.5 hours after UV
Protocol: as §1
Additional experiments of were conducted to evaluate the effect of a caspase or calpain inhibitor on SH-EP cells subjected to ER stress. Z-VAD-fmk (Z=benzyloxycarbonyl group at the N-terminus of Val-Ala-DL-Asp(OMe)-fluoromethylketone; BACHEM) is a general caspase inhibitor that inhibits most of the known caspases, to varying extents. Calpeptin is an inhibitor of calpains, a family of calcium-dependent proteases that proteolyze a variety of cellular proteins. […] Caspase activation was evaluated by Western blot using antibodies to caspase-12 as described above in Example 8A. […]

caspase-3 = experiment: Caspase-3 cleavage following UV irradiation in SH-EP cells subjected to ER stress (Western blot); type: cell-based; details: 2 μM A23187 40 hours
DEVD-R110 = experiment: Homogeneous Caspase Assay, fluorimetric, release of rhodamine-110 from DEVD-R110; type: biochemical; details: partially purified protein preparation; two-hour incubation of DEVD-R110 substrate
Text: The enzymatic activity of the partially purified hCaspase-12 and ΔCARD proteins was further evaluated in a fluorimetric assay allowing quantitation. The caspase activity of partially purified hCaspase-12 and ΔCARD protein preparations was compared to a control (non-caspase protein) preparation, using the Homogeneous Caspase Assay (Roche Biochemicals) according to the manufacturer's protocol. The assay measures the amount of free rhodamine-110, following its release from the substrate DEVD-R110, a caspase recognition sequence. Following a two-hour incubation of DEVD-R110 substrate with dilutions of the various protein preparations, free rhodamine-110 was quantitated fluorimetrically. Measured fluorescence intensity (RFU) for each preparation was 807 for hCaspase-12, 445 for ΔCARD, and 31 for the control.

procaspase-3 = experiment: Proteolytic activity using procaspase-3 substrate (Western blot); type: biochemical; details: partially purified preparation, 2 hours at 37° C.; antibody to full-length caspase-3
Protocol: Lysates which contain recombinant caspases produced by expression in E. coli often contain fragments indicative of autoprocessing. Because the autolysis in caspase-12 lysates observed in Example 3B above is indicative of enzymatic activity, the enzymatic activity of partially purified human caspase-12 lysates was evaluated using procaspase-3 as a potential substrate. Caspase-3 is an effector caspase, which is cleaved at Asp175 by initiator caspases-8 and -9 to give the mature 19 kDa and 11 kDa subunits of the active enzyme. Processing of procaspase-3 was evaluated by Western blot analysis using an antibody that binds to full-length caspase-3 and another antibody that binds to the larger B subunit and that is specific for activated enzyme.
For use as a substrate for caspase-12, procaspase-3 was immunoprecipitated from SH-EP cell lysates using an antibody to full-length caspase-3 (Upstate Biotechnology, Inc.) and isolated on Protein G-Plus/Protein A agarose (Oncogene Science). […] Caspase-3 processing/activation by caspase-12 was detected by incubating with an anti-caspase-3 antibody (Upstate Biotechnology) which recognizes all subunits of caspase-3. Following incubation with an anti-rabbit HRP-conjugated antibody (Santa Cruz Biotechnology), immunoreactivity was detected by chemiluminescence using SuperSignal West PICO reagent (Pierce). […]

calpain II = target: T1, calpain II (Homo sapiens, UniProt P17655); experiment: Calpain II cleavage of human caspase-12 in vitro (Western blot); type: biochemical; details: affinity-purified protein, 0.012 U/μl calpain II activated by 5 mM CaCl2
T1 construct: purchased Calbiochem
T1 sequence (P17655 1-700): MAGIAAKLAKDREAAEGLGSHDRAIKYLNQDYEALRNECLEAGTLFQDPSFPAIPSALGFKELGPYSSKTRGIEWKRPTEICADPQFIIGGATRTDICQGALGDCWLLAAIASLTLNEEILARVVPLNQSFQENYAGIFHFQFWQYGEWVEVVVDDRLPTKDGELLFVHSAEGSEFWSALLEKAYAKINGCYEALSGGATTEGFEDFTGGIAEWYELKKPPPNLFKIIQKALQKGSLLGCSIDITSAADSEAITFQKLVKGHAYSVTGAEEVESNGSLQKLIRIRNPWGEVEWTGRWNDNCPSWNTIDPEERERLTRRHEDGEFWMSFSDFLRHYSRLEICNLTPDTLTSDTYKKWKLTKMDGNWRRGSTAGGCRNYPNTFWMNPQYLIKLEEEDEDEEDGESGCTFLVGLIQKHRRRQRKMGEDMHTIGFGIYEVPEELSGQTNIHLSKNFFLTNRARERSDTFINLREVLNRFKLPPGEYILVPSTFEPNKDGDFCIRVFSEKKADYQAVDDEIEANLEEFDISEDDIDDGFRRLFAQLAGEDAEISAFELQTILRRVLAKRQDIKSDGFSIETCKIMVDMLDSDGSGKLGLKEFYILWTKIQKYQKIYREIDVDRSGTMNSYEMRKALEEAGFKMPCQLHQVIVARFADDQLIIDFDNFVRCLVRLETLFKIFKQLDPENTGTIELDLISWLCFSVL
T1 sequence (P04632 1-268 partner): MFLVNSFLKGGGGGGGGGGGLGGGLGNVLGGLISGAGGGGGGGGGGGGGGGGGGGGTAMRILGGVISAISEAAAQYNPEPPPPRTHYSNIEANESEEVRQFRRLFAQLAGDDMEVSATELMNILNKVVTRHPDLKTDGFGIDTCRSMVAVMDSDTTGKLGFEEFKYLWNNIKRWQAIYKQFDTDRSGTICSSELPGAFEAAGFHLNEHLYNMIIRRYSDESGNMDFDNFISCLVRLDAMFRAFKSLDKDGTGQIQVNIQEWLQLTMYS
Protocol: The relationship between calpain and caspase-12 was explored in vitro as follows. Affinity-purified hCaspase-12 and ΔCARD caspase-12 prepared as described in Example 3B above, were incubated with 0.012 U/μl calpain II (Calbiochem) in solutions containing 150 mM NaCl, 20 mM Tris-HCl, pH 7.5, and 1 mM DTT. Calpain II was activated by the addition of 5 mM CaCl2, while corresponding control cultures were not activated by addition of calcium. Cleavage of human caspase-12 was evaluated by Western blot analysis as described in Example 8A above. […] Thus, the activation and processing of caspase-12 is closely tied to cellular calcium levels. It is anticipated that calpain will process caspase-12 by recognizing the cleavage site “ASADT” at positions 269-272 of hCaspase-12 (SEQ ID NO: 77), with cleavage occurring between residues 271 and 272. Because cellular calcium is an important regulatory feature in health and disease, the signaling pathway to caspase-12 may have multiple branches that can result in activation of this caspase.

SH-EP cells = experiment: Cleavage of exogenous hCaspase-12 in transfected SH-EP cells after αFas-antibody induction of the extrinsic cell death pathway (Western blot); type: cell-based; details: 250 ng/ml αFas-antibody for 18 hours
Protocol: The role of hCaspase-12 in cell death pathways was examined using cells of a neuroblastoma cell line, SH-EP. In the extrinsic (or receptor-induced) cell death pathway, caspase-8 is the apical caspase that cleaves effector caspases such as caspase-3, which cleaves many cellular substrates. Caspase activation, indicated by cleavage of the proform of the enzyme in cell lysates, was evaluated by Western blot analysis.
The expression vector pIRES-hrGFP-1a harboring the hCaspase-12 or RIK-5 gene was transfected into SH-EP cells using Superfect transfection reagent (Qiagen). At 24 hours post-transfection, 250 ng/ml αFas-antibody (CH-11, Upstate Biotechnology) was added and incubated for 18 hours to induce the extrinsic cell death pathway. Culture medium and cells were harvested and lysed in detergent buffer. Cleavage of exogenous hCaspase-12 was evaluated by Western blot analysis using anti-human caspase-12 antibody (prepared against peptide WSHHLEEIFQKVQHSFE as described in Example 4).

Molecule: CNc1ccc2oc(C[C@H]3O[C@@]4(CC[C@H]3C)O[C@H]([C@H](C)C(=O)c3ccc[nH]3)[C@H](C)C[C@H]4C)nc2c1C(=O)O [A23187]
Induction of caspase-12 protein ([1]; SH-EP cells, 2 μM A23187, harvested over time): strong induction
Expression of caspase-12 ([1]; SH-EP cells, 2 μM A23187 for 40 hours): induced

Molecule: COC(=O)C[C@H](NC(=O)[C@H](C)NC(=O)[C@@H](NC(=O)OCc1ccccc1)C(C)C)C(=O)CF [Z-VAD-fmk] (Cbz-Val-Ala-Asp(OMe)-CH2F)
Cleavage of pro-caspase-12 after UV irradiation (endogenous caspase-12; pre-incubated with 50 μM Z-VAD-fmk 1 hour prior to UV): reduces cleavage
Cleavage of caspase-3 following UV irradiation (caspase-3; 50 μM Z-VAD-fmk): inhibited

Molecule: CCCC[C@@H](C=O)NC(=O)[C@H](CC(C)C)NC(=O)OCc1ccccc1 [calpeptin]
Cleavage of procaspase-12 after UV irradiation (endogenous caspase-12; pre-incubated with 10 μM calpeptin 1 hour prior to UV): reduced
Cleavage of caspase-3 following UV irradiation (caspase-3; 10 μM calpeptin): not affected

Molecule: C[C@@H]1C[C@@H]([C@H](O)CC2CC(=O)NC(=O)C2)C(=O)[C@@H](C)C1 [cycloheximide]
A23187-induced expression of caspase-12 ([1]; SH-EP cells, 2 μM A23187 for 40 hours plus 10 μg/ml cycloheximide): inhibited

Molecule: β-amyloid [25-35]: β-amyloid [25-35] (BACHEM) (GSNKGAIIGLM; Amyloid-beta protein 42; UniProt P05067 696-706, looked up, fragment)
Induction of human caspase-12 ([1]; cultures treated with 40 μM β-amyloid [25-35] for 40 hours): induction of human caspase-12 was observed

Measured fluorescence intensity (RFU), free rhodamine-110 (DEVD-R110): 807 RFU
Cleavage by calpain II (calpain II): cleaves
B1: hCaspase-12: non-naturally occurring variant human caspase-12 with Ser-205 to Gly mutation (SEQ ID NO: 77), expressed as 6-His fusion protein (protein, listed as Homo sapiens)
chain: MADEKPSNGVLVHMVKLLIKTFLDGIFDDLMENNVLNTDEIHLIGKCLKFVVSNAENLVDDITETAQIAGKIFREHLWNSKKQLSSALLEIQGAQPSGKLKLCPHAHFHELKTKRADEIYPVMEKERRTCLALNIRNKEFNYLHNRNGSELDLLGMRDLLENLGYSVVIKENLTAQEMETALRQFAAHPEHQSSDSTFLVFMSHGILNGICGTKHWDQEPDVLHDDTIFEIFNNRNCQSLKDKPKVIIMQACRGNGAGIVWFTTDSGKASADTHGRLLQGNICNDAVTKAHVEKDFIAFKSSTPHNVSWRHETNGSVFISQIIYYFREYSWSHHLEEIFQKVQHSFETPNILTQLPTIERLSMTRYFYLFPGN
modifications: 6-His tag
Processing of procaspase-3 to mature subunits (procaspase-3): lower molecular weight bands indicative of cleaved mature subunits were observed
Cleavage of exogenous protein in cultures undergoing apoptosis (SH-EP cells): cleaved

Reference: patent US6833248B2, “Human caspase-12 materials and methods” (Pharmacia & Upjohn Company, priority 2000, dated 2004)
